Molecular target: T1, recombinant maize (Zea mays) CK2 a-subunit (Biaffin) (Zea mays, UniProt P28523)
T1 construct: gene ACK2; commercial recombinant catalytic alpha subunit (Biaffin)
Assay: in vitro kinase assay, SDS-PAGE and phosphorimager
Format: biochemical
Conditions: protein substrate recombinant AtSOUL4 (3 µg); 25 mM Tris-HCl pH 8.0, 5 mM MgCl2, 1 mM DTT, 25 °C, 30 min; labelled compound; mere turnover

T1 sequence (P28523 whole entry): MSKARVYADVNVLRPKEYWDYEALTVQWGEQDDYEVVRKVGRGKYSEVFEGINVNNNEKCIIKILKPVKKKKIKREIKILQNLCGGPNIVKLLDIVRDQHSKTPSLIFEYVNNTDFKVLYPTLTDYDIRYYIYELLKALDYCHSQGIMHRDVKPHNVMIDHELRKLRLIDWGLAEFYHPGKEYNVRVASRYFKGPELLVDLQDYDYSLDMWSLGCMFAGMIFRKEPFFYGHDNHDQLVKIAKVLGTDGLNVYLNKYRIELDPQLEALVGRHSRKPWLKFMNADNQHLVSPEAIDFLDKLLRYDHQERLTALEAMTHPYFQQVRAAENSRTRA

## Nc1ncnc2c1ncn2[C@@H]1O[C@H](COP(=O)(O)OP(=O)(O)OP(=O)(O)O)[C@@H](O)[C@H]1O [ATP]
  in vitro kinase assay, SDS-PAGE and phosphorimager: revealing phosphorylation of SOUL4 both by recombinant maize CKII and stromal fraction

Reference: paper PMC7006542, “Characterization of a Plastoglobule-Localized SOUL4 Heme-Binding Protein in Arabidopsis thaliana” (Frontiers in Plant Science, 2020)
